The values below come from ChEMBL document CHEMBL4033775, “Natural-Products-Inspired Use of the gem-Dimethyl Group in Medicinal Chemistry” (J Med Chem, 2018).

Molecules are shown by their SMILES. Values after ≈ are worked out from the molar mass of the structure shown.

As a reminder, the IC50 is the concentration at which inhibition is half-maximal. As usually defined, the Ki is a measure of affinity in units of concentration, obtained from inhibition or displacement. Usually half-life stands for the time needed for the level to fall by half in the phase considered. The Cmax is the highest concentration seen after dosing. Usually Tmax stands for the time at which the peak concentration occurs. As usually defined, the CL/F is the apparent clearance, not corrected for the fraction that reaches the circulation. Broadly, the MIC90 is the lowest concentration that inhibits either 90% of growth or 90% of the strains tested, depending on the study. What is called EC50 is the concentration at which the effect is half-maximal. What is called inhibition is the drop in the measured response relative to a control, in per cent.

The subject of data set [1] is Rattus norvegicus. Kind of data set: Anti-hypertensive activity in conscious spontaneously hypertensive Okamoto rat assessed as reduction in systolic blood pressure at 3 mg/kg, po measured up to 6 hrs post dose relative to control. Format: functional. The arrangement: scale not given: the % may be the effect or the level left.
The species named for data set [2] is Homo sapiens. Kind of data set: Antagonist activity at nAChR (unknown origin) relative to (+/-)-mecamylamine.
The target in data set [3] is Interstitial collagenase (Homo sapiens, UniProt P03956). Briefly: Inhibition of human interstitial recombinant N-terminal MMP1 expressed in Escherichia coli BL21(DE3) using Mca-Pro-Leu-Gly-Leu-Dpa-Ala-Arg-NH2 as substrate after 20 to 30 mins by spectrofluorimetric analysis.
Interstitial collagenase, sequence (P03956 whole entry): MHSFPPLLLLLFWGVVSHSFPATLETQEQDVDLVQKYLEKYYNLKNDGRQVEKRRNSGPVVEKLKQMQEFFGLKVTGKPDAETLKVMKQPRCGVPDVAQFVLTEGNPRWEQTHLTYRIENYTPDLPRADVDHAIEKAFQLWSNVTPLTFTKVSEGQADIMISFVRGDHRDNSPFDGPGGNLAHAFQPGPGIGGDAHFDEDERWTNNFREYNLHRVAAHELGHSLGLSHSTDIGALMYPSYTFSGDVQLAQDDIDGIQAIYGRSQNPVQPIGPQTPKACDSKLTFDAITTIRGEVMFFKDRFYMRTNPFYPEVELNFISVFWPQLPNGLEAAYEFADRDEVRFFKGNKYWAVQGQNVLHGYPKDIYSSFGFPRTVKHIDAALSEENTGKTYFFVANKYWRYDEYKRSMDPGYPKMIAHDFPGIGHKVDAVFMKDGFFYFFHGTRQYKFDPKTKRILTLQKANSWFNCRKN
The target in data set [4] is T1, Matrilysin (Homo sapiens, UniProt P09237).
T1 sequence (P09237 whole entry): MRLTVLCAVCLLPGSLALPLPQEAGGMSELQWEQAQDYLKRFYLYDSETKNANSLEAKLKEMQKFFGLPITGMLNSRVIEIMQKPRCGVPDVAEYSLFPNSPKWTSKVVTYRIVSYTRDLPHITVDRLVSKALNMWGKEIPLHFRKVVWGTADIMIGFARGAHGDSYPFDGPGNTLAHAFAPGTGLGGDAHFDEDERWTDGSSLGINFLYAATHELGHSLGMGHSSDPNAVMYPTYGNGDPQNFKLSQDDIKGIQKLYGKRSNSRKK
Briefly: Inhibition of MMP7 (unknown origin) expressed in Escherichia coli BL21(DE3) using Mca-Pro-Leu-Gly-Leu-Dpa-Ala-Arg-NH2 as substrate after 20 to 30 mins by spectrofluorimetric analysis.

In data set [5] the target is Collagenase 3 (Homo sapiens, UniProt P45452). Kind of data set: Inhibition of MMP13 (unknown origin) expressed in Escherichia coli BL21(DE3) using Mca-Pro-Leu-Gly-Leu-Dpa-Ala-Arg-NH2 as substrate after 20 to 30 mins by spectrofluorimetric analysis.
Data set [6] has as its target Prothrombin (Homo sapiens, UniProt P00734). Kind of data set: Inhibition of human plasma thrombin using chromogenix AB as substrate after 30 secs by UV-spectrophotometry.
Data set [7] addresses Prothrombin (Bos taurus, UniProt P00735). Kind of data set: Inhibition of bovine plasma thrombin using chromogenix AB as substrate after 30 secs by UV-spectrophotometry.
Data set [8] deals with D(2) dopamine receptor (Homo sapiens, UniProt P14416). Kind of data set: Displacement of [3H]methylspiperone from human D2 receptor expressed in HEK cells. Format: cell-based.
D(2) dopamine receptor, sequence (P14416 whole entry): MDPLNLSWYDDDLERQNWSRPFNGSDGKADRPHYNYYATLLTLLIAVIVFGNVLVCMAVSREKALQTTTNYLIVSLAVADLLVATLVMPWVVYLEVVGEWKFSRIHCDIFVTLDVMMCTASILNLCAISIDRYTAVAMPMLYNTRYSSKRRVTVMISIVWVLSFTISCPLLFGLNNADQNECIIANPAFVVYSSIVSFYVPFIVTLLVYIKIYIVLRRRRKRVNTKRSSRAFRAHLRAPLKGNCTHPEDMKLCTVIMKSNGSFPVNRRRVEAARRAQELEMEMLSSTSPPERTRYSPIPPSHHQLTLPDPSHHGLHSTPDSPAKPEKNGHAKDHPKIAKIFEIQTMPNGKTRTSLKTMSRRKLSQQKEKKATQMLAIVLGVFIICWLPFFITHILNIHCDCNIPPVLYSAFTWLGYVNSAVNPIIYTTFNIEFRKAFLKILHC
For data set [9], the target named is 5-hydroxytryptamine receptor 2A (Homo sapiens, UniProt P28223).
5-hydroxytryptamine receptor 2A, sequence (P28223 whole entry): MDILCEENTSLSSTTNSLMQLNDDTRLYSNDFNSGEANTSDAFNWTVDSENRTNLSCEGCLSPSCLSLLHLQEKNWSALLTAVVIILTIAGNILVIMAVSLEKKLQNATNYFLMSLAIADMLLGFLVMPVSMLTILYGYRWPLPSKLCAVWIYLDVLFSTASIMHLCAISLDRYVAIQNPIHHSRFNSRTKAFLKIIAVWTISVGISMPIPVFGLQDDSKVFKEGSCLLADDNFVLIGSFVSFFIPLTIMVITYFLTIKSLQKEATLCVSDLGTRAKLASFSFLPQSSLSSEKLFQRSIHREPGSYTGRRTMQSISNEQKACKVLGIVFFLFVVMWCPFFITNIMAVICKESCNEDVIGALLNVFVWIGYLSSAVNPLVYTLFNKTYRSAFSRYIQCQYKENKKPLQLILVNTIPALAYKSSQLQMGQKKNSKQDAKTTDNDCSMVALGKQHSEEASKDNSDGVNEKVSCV
Data set [10] has as its system Rattus norvegicus. Briefly: Anti-hypertensive activity in conscious spontaneously hypertensive Okamoto rat assessed as reduction in systolic blood pressure at 0.3 mg/kg, po measured up to 6 hrs post dose relative to control. The arrangement: scale not given: the % may be the effect or the level left. Format: functional.
The subject of data set [11] is Rattus norvegicus. Kind of data set: Anti-hypertensive activity in conscious spontaneously hypertensive Okamoto rat assessed as reduction in systolic blood pressure at 0.1 mg/kg, po measured up to 6 hrs post dose relative to control. The arrangement: scale not given: the % may be the effect or the level left. The data set is classed as functional.
For data set [12], the target named is Integrin alpha-IIb/beta-3 (Homo sapiens, UniProt P05106+P08514). Kind of data set: Inhibition of human GP2b/3a interaction with human fibrinogen after 3 hrs by ELISA. The data set is classed as protein-complex assay.
Integrin alpha-IIb/beta-3, sequence (P05106 27-788 limits assumed): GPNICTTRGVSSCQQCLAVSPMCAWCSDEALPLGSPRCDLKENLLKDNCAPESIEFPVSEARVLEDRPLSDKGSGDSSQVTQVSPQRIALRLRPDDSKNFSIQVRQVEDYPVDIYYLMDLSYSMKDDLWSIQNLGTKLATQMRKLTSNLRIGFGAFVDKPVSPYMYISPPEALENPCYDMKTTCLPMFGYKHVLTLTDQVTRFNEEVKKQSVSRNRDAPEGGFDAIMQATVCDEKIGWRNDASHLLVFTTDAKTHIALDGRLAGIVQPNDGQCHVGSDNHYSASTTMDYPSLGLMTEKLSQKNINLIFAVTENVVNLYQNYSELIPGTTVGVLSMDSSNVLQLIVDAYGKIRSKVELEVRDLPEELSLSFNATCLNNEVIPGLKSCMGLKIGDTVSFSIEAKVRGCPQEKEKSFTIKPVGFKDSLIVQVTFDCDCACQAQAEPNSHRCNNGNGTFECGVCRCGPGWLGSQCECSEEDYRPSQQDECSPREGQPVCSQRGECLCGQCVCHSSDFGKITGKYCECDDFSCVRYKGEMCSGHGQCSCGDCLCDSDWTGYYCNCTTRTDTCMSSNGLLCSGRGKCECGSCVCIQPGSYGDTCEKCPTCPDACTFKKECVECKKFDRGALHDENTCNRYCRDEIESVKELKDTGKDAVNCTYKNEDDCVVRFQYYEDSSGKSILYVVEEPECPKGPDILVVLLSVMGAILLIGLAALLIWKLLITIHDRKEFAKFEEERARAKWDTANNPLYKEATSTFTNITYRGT
Integrin alpha-IIb/beta-3, sequence (P08514 32-887 limits assumed): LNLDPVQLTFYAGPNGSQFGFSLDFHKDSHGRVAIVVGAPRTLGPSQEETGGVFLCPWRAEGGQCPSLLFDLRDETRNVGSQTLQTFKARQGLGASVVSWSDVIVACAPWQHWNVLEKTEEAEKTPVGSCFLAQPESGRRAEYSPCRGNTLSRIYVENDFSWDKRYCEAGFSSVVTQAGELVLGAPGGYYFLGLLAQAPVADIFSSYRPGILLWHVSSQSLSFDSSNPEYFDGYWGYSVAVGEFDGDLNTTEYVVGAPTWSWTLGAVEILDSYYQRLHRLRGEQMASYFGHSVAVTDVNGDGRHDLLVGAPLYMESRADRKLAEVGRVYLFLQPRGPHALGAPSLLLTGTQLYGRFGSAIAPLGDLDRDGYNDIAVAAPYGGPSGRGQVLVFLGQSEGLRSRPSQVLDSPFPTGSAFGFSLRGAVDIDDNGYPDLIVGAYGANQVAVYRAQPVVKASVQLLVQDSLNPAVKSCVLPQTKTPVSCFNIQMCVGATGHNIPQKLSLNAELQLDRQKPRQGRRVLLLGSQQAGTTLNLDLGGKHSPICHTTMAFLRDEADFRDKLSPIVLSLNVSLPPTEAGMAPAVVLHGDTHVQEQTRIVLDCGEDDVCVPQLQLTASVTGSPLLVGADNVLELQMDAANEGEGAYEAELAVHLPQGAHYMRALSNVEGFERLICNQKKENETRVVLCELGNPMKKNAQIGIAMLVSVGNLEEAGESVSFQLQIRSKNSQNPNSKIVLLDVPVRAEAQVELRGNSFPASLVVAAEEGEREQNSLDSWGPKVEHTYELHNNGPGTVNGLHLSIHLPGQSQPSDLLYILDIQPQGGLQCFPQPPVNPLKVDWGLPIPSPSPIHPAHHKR
Integrin alpha-IIb/beta-3, sequence (P08514 891-1039 limits assumed): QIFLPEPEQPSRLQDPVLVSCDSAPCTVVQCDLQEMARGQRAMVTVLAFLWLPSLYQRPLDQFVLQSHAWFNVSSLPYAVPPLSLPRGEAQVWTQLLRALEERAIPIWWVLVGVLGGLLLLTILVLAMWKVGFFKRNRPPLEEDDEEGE
Data set [13] is described as follows: Half life in Hartley guinea pig at 1 mg/kg, iv measured up to 180 mins post dose by HPLC analysis. The data set is classed as ADME, organism-based, Cavia porcellus. To be noted: in vivo.
A short description of data set [14]: Cmax in Sprague-Dawley rat at 10 mg/kg, po measured up to 120 mins post dose by HPLC analysis. The data set is classed as ADME, organism-based. The arrangement: dose 10 mg/kg, route oral. To be noted: in vivo.
Data set [15] can be described thus: Tmax in Sprague-Dawley rat at 10 mg/kg, po measured up to 120 mins post dose by HPLC analysis. Format: ADME, organism-based. The conditions noted are these: in vivo.
In data set [16] the test system is Trypanosoma brucei brucei. Kind of data set: Antitrypanosomal activity against Trypanosoma brucei brucei after 72 hrs by resazurin-based fluorescence assay. Format: functional. For orientation: Alamar Blue is a resazurin reagent that responds to reducing activity.
Data set [17] in a line: Clearance in po dosed rat. The data set is classed as ADME, organism-based. The conditions noted are these: in vivo.
The test system of data set [18] is 1A9. Kind of data set: Cytotoxicity against human 1A9 cells. The data set is classed as functional, cell-based.
Data set [19] relates to Clostridioides difficile. Briefly: Antibacterial activity against Clostridium difficile. The data set is classed as functional.
The target in data set [20] is Retinoic acid receptor RXR-beta (Homo sapiens, UniProt P28702). Briefly: Agonist activity at RXRbeta (unknown origin).
Retinoic acid receptor RXR-beta, sequence (P28702 whole entry): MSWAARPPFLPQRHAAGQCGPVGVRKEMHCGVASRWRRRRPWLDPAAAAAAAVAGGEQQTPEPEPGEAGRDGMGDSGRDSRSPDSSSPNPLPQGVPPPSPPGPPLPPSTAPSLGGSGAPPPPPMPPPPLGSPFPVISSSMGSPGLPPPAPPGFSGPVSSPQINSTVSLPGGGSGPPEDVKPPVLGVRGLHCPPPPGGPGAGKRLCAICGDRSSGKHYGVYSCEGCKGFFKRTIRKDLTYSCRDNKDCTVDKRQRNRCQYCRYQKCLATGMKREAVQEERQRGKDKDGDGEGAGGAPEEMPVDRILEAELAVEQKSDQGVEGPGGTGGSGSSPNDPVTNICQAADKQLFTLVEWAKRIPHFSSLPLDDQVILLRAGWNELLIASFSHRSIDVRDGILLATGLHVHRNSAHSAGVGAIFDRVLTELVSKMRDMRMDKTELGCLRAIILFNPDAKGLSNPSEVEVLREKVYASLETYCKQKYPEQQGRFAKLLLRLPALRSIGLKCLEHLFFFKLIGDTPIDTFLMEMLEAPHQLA
Data set [21] concerns the target Retinoic acid receptor RXR-gamma (Homo sapiens, UniProt P48443). Kind of data set: Agonist activity at RXRgamma (unknown origin).
Data set [22] addresses Retinoic acid receptor alpha (Homo sapiens, UniProt P10276). Kind of data set: Agonist activity at RARaplha (unknown origin).
Data set [23] deals with Retinoic acid receptor beta (Homo sapiens, UniProt P10826). Kind of data set: Agonist activity at RARbeta (unknown origin).
Retinoic acid receptor beta, sequence (P10826 whole entry): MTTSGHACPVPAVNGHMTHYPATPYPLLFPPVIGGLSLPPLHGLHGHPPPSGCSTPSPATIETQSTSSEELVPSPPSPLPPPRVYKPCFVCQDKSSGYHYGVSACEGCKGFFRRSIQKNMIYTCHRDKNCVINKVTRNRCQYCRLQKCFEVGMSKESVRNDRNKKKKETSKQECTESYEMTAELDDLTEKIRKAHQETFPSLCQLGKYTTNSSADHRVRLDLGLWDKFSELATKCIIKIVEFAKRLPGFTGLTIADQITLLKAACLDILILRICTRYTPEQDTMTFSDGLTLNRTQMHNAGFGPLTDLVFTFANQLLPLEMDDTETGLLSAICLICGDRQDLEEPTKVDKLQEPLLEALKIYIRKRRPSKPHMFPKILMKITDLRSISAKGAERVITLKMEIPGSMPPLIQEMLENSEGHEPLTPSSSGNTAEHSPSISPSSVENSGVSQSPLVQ
The target in data set [24] is Retinoic acid receptor gamma (Homo sapiens, UniProt P13631). Kind of data set: Agonist activity at RARgamma (unknown origin).
Data set [25] has as its system MCF7. Kind of data set: Cytotoxicity against human MCF7 cells assessed as reduction in protein synthesis. Format: functional, cell-based.
The subject of data set [26] is HeLa. Briefly: Cytotoxicity against human HeLa cells assessed as reduction in protein synthesis at 0.05 uM. Format: functional.

Retinoic acid receptor RXR-gamma, sequence (P48443 whole entry): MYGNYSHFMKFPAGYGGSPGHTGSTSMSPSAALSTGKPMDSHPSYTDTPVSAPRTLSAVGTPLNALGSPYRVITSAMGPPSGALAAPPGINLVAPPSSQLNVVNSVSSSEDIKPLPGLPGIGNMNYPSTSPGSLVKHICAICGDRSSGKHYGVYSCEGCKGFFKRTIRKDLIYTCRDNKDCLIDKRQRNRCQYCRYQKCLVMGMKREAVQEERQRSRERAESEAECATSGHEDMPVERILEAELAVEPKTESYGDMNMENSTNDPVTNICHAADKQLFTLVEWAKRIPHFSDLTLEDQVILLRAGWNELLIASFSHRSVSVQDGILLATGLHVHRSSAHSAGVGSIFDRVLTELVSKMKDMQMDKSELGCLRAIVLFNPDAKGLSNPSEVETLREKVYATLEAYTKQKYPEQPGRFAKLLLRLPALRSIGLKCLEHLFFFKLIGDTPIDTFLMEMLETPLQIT

For `CC1(C)Oc2ccc(C#N)cc2C(N2CCCC2=O)C1O` (single isomer, unassigned; (+)) [CROMAKALIM], the Activity in data set [1] is reported as 14%.
`CN[C@@]1(C)[C@H]2CC[C@@H](C2)C1(C)C`: the fold change (FC) in [2] was determined as 3.
With `COc1ccc(S(=O)(=O)N2CCCSC[C@@H]2C(=O)NO)cc1`, the values for the IC50 in [3], in [4] and in [5] were 64 nM, 1100 nM and 1.9 nM, respectively.
As to `CC1CNc2c(cccc2S(=O)(=O)N[C@@H](CCCNC(=N)N)C(=O)N2CCC(CCO)CC2)C1` (mixture of isomers), the Ki in data set [6] was 40 nM; in [7], 50 nM.
`CC1(C)CC(=O)N(CCCCN2CCN(c3ncccn3)CC2)C(=O)C1` [GEPIRONE]: the Ki in data set [8] is 4320 nM; in data set [9], 3630 nM.
In the case of `C[C@H]1CNc2c(cccc2S(=O)(=O)N[C@@H](CCCNC(=N)N)C(=O)N2CCC(CCO)CC2)C1`, the Ki in data set [7] was determined as 50 nM.
As to `CC1(C)Oc2ccc(C#N)cc2C(N2CCCC2=O)C1O` (stereo in doubt; 110) [CROMAKALIM], the Activity in [10] stood at 47%; in data set [11], 31%.
The compound `CCOC(=O)CC1CCN(C(=O)CC(CC)NC(=O)c2ccc(C(=N)N3CCSC3)cc2F)CC1` (racemic) returned an IC50 in data set [12] of 2.3 nM. This compound also gave a half-life in data set [13] of 1.83 h. Besides, the Cmax in data set [14] is 1210 ng/mL. For the same compound, the Tmax in data set [15] was 0.5 h.
The compound `CC1(C)OB(O)c2cc(NC(=O)c3ccc(F)cc3C(F)(F)F)ccc21` [ACOZIBOROLE] registered an IC50 in [16] of 556 nM.
Compound `N=C(N)NC(=O)[C@H]1C[C@@H]1c1cccc2c1CCO2` yielded a CL/F in data set [17] of 120 mL/min/kg.
In [18], `CC(=O)O[C@H]1C(=O)[C@@]2(C)[C@H]([C@H](OC(=O)c3ccccc3)[C@]3(O)C[C@H](OC(=O)[C@H](O)[C@@H](NC(=O)c4ccccc4)c4ccccc4)C(C)=C1C3(C)C)[C@]1(OC(C)=O)CO[C@@H]1C[C@@H]2O` [PACLITAXEL] returned an IC50 of 3.71 nM.
As for `CCc1c(Cl)c(O)c(Cl)c(O)c1C(=O)O[C@H]1[C@H](O)[C@H](OC)[C@H](OC/C2=C\C=C\C[C@H](O)/C(C)=C/[C@H](CC)[C@@H](O[C@@H]3OC(C)(C)[C@@H](OC(=O)C(C)C)[C@H](O)[C@@H]3O)/C(C)=C/C(C)=C/C[C@H]([C@@H](C)O)OC2=O)O[C@@H]1C`, in data set [19], the MIC90 lay in the range of 0.125 to 0.25 µg/mL (≈ 0.118 to 0.236 µM).
With `CN[C@]1(C)[C@H]2CC[C@@H](C2)C1(C)C`, the fold change (FC) in data set [2] stood at 1.4.
Consider `C=C(c1ccc(C(=O)O)cc1)c1cc2c(cc1C)CCCC2(C)C`, for which the EC50 in data set [20] is 2400 nM; in [21] it was 2600 nM; in [22] it was more than 10000 nM; in data set [23] it was more than 10000 nM; in [24] it was more than 10000 nM.
For `COC(=O)C[C@](O)(CCCC(C)(C)O)C(=O)O[C@@H]1C(OC)=C[C@]23CCCN2CCc2cc4c(cc2[C@H]13)OCO4` [OMACETAXINE MEPESUCCINATE], in data set [25], the IC50 turned out to be 0.87 nM. The inhibition at 0.05 µM in data set [26] turned out to be 50%.
For `COc1ccc(S(=O)(=O)N2CCSCC2C(=O)NO)cc1` (configuration not stated), in data set [4], half-maximal inhibition (IC50) required 2030 nM.
In data set [18], `CC(=O)O[C@@]12CO[C@@H]1C[C@H](O)[C@@]1(C)C(=O)[C@H](O)C3=C(C)[C@@H](OC(=O)[C@H](O)[C@@H](NC(=O)OC(C)(C)C)c4ccccc4)C[C@@](O)([C@@H](OC(=O)c4ccccc4)[C@H]21)C3(C)C` [DOCETAXEL ANHYDROUS] had an IC50 of 3.55 nM.
Same read-out and setting: as for `C/C(=C\c1csc(C)n1)[C@@H]1C[C@@H]2O[C@]2(C)CCC[C@H](C)[C@H](O)[C@@H](C)C(=O)C(C)(C)[C@@H](O)CC(=O)N1` [IXABEPILONE], the figure is 6.65 nM.
Regarding `N=C(N)NCCC[C@H](NS(=O)(=O)c1cccc2c1NCCC2)C(=O)N1CCC(CCO)CC1`, the inhibition constant Ki in data set [7] is 500 nM.
